One block for each molecule: values may come before it. Calls of active or inactive are those of the source. The calls are words filed in the database; no cut-off is given here.
Experiments:
Nucleic Acid [1] = assay: Binding affinity to 5'-end FAM-tagged GACACAAUCCCAAUCUGGUU RNA (unknown origin) assessed as induction of crosslinking by measuring heteroduplex formation at 4 uM measured after 24 hrs by bromophenol blue staining-based denaturing PAGE analysis relative to control; format: nucleic-acid assay
Nucleic Acid [2] = assay: Binding affinity to 5'-end FAM-tagged GACGCAAUCCCAAUCUGGUU RNA (unknown origin) assessed as induction of crosslinking by measuring heteroduplex formation at 4 uM measured after 24 hrs by bromophenol blue staining-based denaturing PAGE analysis relative to control; format: nucleic-acid assay
Nucleic Acid [3] = assay: Binding affinity to 5'-end FAM-tagged GACCCAAUCCCAAUCUGGUU RNA (unknown origin) assessed as induction of crosslinking by measuring heteroduplex formation at 4 uM measured after 24 hrs by bromophenol blue staining-based denaturing PAGE analysis relative to control; format: nucleic-acid assay
Nucleic Acid [4] = assay: Binding affinity to 5'-end FAM-tagged GACUCAAUCCCAAUCUGGUU RNA (unknown origin) assessed as induction of crosslinking by measuring heteroduplex formation at 4 uM measured after 24 hrs by bromophenol blue staining-based denaturing PAGE analysis relative to control; format: nucleic-acid assay
Nucleic Acid [5] = assay: Binding affinity to 5'-end FAM-tagged GACACAATCCCAATCTGGTT DNA (unknown origin) assessed as induction of crosslinking by measuring heteroduplex formation at 4 uM measured after 24 hrs by bromophenol blue staining-based denaturing PAGE analysis relative to control; format: nucleic-acid assay
Nucleic Acid [6] = assay: Binding affinity to 5'-end FAM-tagged GACGCAATCCCAATCTGGTT DNA (unknown origin) assessed as induction of crosslinking by measuring heteroduplex formation at 4 uM measured after 24 hrs by bromophenol blue staining-based denaturing PAGE analysis relative to control; format: nucleic-acid assay
Nucleic Acid [7] = assay: Binding affinity to 5'-end FAM-tagged GACCCAATCCCAATCTGGTT DNA (unknown origin) assessed as induction of crosslinking by measuring heteroduplex formation at 4 uM measured after 24 hrs by bromophenol blue staining-based denaturing PAGE analysis relative to control; format: nucleic-acid assay
Nucleic Acid [8] = assay: Binding affinity to 5'-end FAM-tagged GACTCAATCCCAATCTGGTT DNA (unknown origin) assessed as induction of crosslinking by measuring heteroduplex formation at 4 uM measured after 24 hrs by bromophenol blue staining-based denaturing PAGE analysis relative to control; format: nucleic-acid assay
[9] = Binding affinity to 5'-end FAM-tagged GACTCAATCCCAATCTGGTT DNA (unknown origin) assessed as crosslinked adduct formation by MALDI-TOF MS analysis
unidentified [10] = assay: Binding affinity to 5'-end FAM-tagged GACTCAATCCCAATCTGGTT DNA (unknown origin) assessed as melting temperature at 1.5 uM measured after 5 mins by UV spectrophotometry (reference value: 79.2 degC)
unidentified [11] = assay: Binding affinity to 5'-end FAM-tagged GACUCAAUCCCAAUCUGGUU RNA (unknown origin) assessed as melting temperature at 1.5 uM measured after 5 mins by UV spectrophotometry (reference value: 82.2 degC)
Nucleic Acid [12] = assay: Binding affinity to synthetic 5'-FAM-labelled pre-miR-122 RNA site2 (unknown origin) assessed as heteroduplex formation at 4 uM measured after 2 hrs by denaturing PAGE analysis relative to control; format: nucleic-acid assay
Nucleic Acid [13] = assay: Binding affinity to synthetic 5'-fluorescein-labelled pre-miR-122 RNA site2 (unknown origin) assessed as heteroduplex formation at 4 uM measured after 48 hrs by non-denaturing PAGE analysis relative to control; format: nucleic-acid assay
Nucleic Acid [14] = assay: Binding affinity to synthetic 5'-FAM-labelled pre-miR-122 RNA site2 (unknown origin) assessed as human dicer-mediated digestion of pre-miR-122 RNA preincubated with RNA for 2 days followed by dicer addition measured after 2 hrs by denaturing PAGE analysis; format: nucleic-acid assay
Nucleic Acid [15] = assay: Binding affinity to synthetic 5'-FAM-labelled pre-miR-122 RNA site2 (unknown origin) assessed as inhibition of human dicer-mediated digestion of pre-miR-122 RNA preincubated with RNA for 2 days followed by dicer addition measured after 2 hrs by denaturing PAGE analysis relative to control; format: nucleic-acid assay; conditions: concentration not given here
[16] = Binding affinity to 5'-end FAM-tagged GACCAAACCCAATCTGGTT DNA (unknown origin) assessed as change in melting temperature at 1.5 uM measured after 5 mins by UV spectrophotometry
[17] = Binding affinity to 5'-end FAM-tagged GACCAAGCCCAATCTGGTT DNA (unknown origin) assessed as change in melting temperature at 1.5 uM measured after 5 mins by UV spectrophotometry
[18] = Binding affinity to 5'-end FAM-tagged GACCAACCCCAATCTGGTT DNA (unknown origin) assessed as change in melting temperature at 1.5 uM measured after 5 mins by UV spectrophotometry
[19] = Binding affinity to 5'-end FAM-tagged GACCAATCCCAATCTGGTT DNA (unknown origin) assessed as change in melting temperature at 1.5 uM measured after 5 mins by UV spectrophotometry
[20] = Binding affinity to 5'-end FAM-tagged GACCAAACCCAAUCUGGUU RNA (unknown origin) assessed as change in melting temperature at 1.5 uM measured after 5 mins by UV spectrophotometry
[21] = Binding affinity to 5'-end FAM-tagged GACCAAGCCCAAUCUGGUU RNA (unknown origin) assessed as change in melting temperature at 1.5 uM measured after 5 mins by UV spectrophotometry
[22] = Binding affinity to 5'-end FAM-tagged GACCAACCCCAAUCUGGUU RNA (unknown origin) assessed as change in melting temperature at 1.5 uM measured after 5 mins by UV spectrophotometry
[23] = Binding affinity to 5'-end FAM-tagged GACCAAUCCCAAUCUGGUU RNA (unknown origin) assessed as change in melting temperature at 1.5 uM measured after 5 mins by UV spectrophotometry
Nucleic Acid [24] = assay: Binding affinity to synthetic 5'-FAM-labelled pre-miR-122 RNA site1 (unknown origin) assessed as heteroduplex formation at 4 uM measured after 2 hrs by denaturing PAGE analysis relative to control; format: nucleic-acid assay
Nucleic Acid [25] = assay: Binding affinity to synthetic 5'-fluorescein-labelled pre-miR-122 RNA site1 (unknown origin) assessed as heteroduplex formation at 4 uM measured after 48 hrs by non-denaturing PAGE analysis relative to control; format: nucleic-acid assay
Nucleic Acid [26] = assay: Binding affinity to synthetic 5'-FAM-labelled pre-miR-122 RNA site1 (unknown origin) assessed as human dicer-mediated digestion of pre-miR-122 RNA preincubated with RNA for 2 days followed by dicer addition measured after 2 hrs by denaturing PAGE analysis; format: nucleic-acid assay
Nucleic Acid [27] = assay: Binding affinity to synthetic 5'-FAM-labelled pre-miR-122 RNA site1 (unknown origin) assessed as inhibition of human dicer-mediated digestion of pre-miR-122 RNA preincubated with RNA for 2 days followed by dicer addition measured after 2 hrs by denaturing PAGE analysis relative to control; format: nucleic-acid assay; conditions: concentration not given here
Nucleic Acid [28] = assay: Binding affinity to synthetic 5'-FAM-labelled pre-miR-122 RNA site3 (unknown origin) assessed as heteroduplex formation at 4 uM measured after 2 hrs by denaturing PAGE analysis relative to control; format: nucleic-acid assay
Nucleic Acid [29] = assay: Binding affinity to synthetic 5'-fluorescein-labelled pre-miR-122 RNA site3 (unknown origin) assessed as heteroduplex formation at 4 uM measured after 48 hrs by non-denaturing PAGE analysis relative to control; format: nucleic-acid assay
Nucleic Acid [30] = assay: Binding affinity to synthetic 5'-FAM-labelled pre-miR-122 RNA site3 (unknown origin) assessed as human dicer-mediated digestion of pre-miR-122 RNA preincubated with RNA for 2 days followed by dicer addition measured after 2 hrs by denaturing PAGE analysis; format: nucleic-acid assay
Nucleic Acid [31] = assay: Binding affinity to synthetic 5'-FAM-labelled pre-miR-122 RNA site3 (unknown origin) assessed as inhibition of human dicer-mediated digestion of pre-miR-122 RNA by measuring heteroduplex formation preincubated with RNA for 2 days followed by dicer addition measured after 2 hrs by denaturing PAGE analysis relative to control; format: nucleic-acid assay; conditions: concentration not given here

Compound: C=Cc1nc(N)nc2c1ncn2CC(=O)N(CCNC(C)=O)CC(=O)NCCN(CC(=O)NCCN(CC(=O)NCCN(CC(=O)NCCN(CC(=O)NCCN(CC(=O)NCCN(CC(=O)NCCN(CC(=O)NCCN(CC(=O)NCCN(CC(=O)NCCN(CC(=O)NCCN(CC(=O)N[C@@H](CCCNC(=N)N)C(=O)N[C@@H](CCCNC(=N)N)C(=O)NCC(N)=O)C(=O)Cn1cnc2c(=O)[nH]c(N)nc21)C(=O)Cn1cnc2c(N)ncnc21)C(=O)Cn1cc(C)c(=O)[nH]c1=O)C(=O)Cn1cc(C)c(=O)[nH]c1=O)C(=O)Cn1cnc2c(=O)[nH]c(N)nc21)C(=O)Cn1cnc2c(=O)[nH]c(N)nc21)C(=O)Cn1cnc2c(=O)[nH]c(N)nc21)C(=O)Cn1cnc2c(N)ncnc21)C(=O)Cn1cc(C)c(=O)[nH]c1=O)C(=O)Cn1cc(C)c(=O)[nH]c1=O)C(=O)Cn1cnc2c(=O)[nH]c(N)nc21
Activity (Nucleic Acid [1]): 0%
Activity (Nucleic Acid [2]): 2%
Activity (Nucleic Acid [3]): 2%
Activity (Nucleic Acid [4]): 62%
Activity (Nucleic Acid [5]): 1%
Activity (Nucleic Acid [6]): 3%
Activity (Nucleic Acid [7]): 2%
Activity (Nucleic Acid [8]): 52%
Activity [9]: Active
Tm (unidentified [10]): 80.3 °C
Tm (unidentified [11]): 84.5 °C

Compound: CSCCc1nc(N)nc2c1ncn2CC(=O)N(CCNC(=O)CN(CCNC(=O)CN(CCNC(=O)CN(CCNC(C)=O)C(=O)Cn1cnc2c(=O)[nH]c(N)nc21)C(=O)Cn1cc(C)c(=O)[nH]c1=O)C(=O)Cn1cc(C)c(=O)[nH]c1=O)CC(=O)NCCN(CC(=O)NCCN(CC(=O)NCCN(CC(=O)NCCN(CC(=O)NCCN(CC(=O)NCCN(CC(=O)NCCN(CC(=O)N[C@@H](CCCNC(=N)N)C(=O)N[C@@H](CCCNC(=N)N)C(=O)NCC(N)=O)C(=O)Cn1cnc2c(=O)[nH]c(N)nc21)C(=O)Cn1cnc2c(N)ncnc21)C(=O)Cn1cc(C)c(=O)[nH]c1=O)C(=O)Cn1cc(C)c(=O)[nH]c1=O)C(=O)Cn1cnc2c(=O)[nH]c(N)nc21)C(=O)Cn1cnc2c(=O)[nH]c(N)nc21)C(=O)Cn1cnc2c(=O)[nH]c(N)nc21
ΔTm [16]: -10.6 °C
ΔTm [17]: -11 °C
ΔTm [18]: -10.3 °C
ΔTm [19]: -9.9 °C
ΔTm [20]: -10.1 °C
ΔTm [21]: -11 °C
ΔTm [22]: -6.1 °C
ΔTm [23]: -5.9 °C

Compound: C=Cc1nc(N)nc2c1ncn2CC(=O)N(CCN)CC(=O)NCCN(CC(=O)NCCN(CC(=O)NCCN(CC(=O)NCCN(CC(=O)NCCN(CC(=O)NCCN(CC(=O)NCCN(CC(=O)NCCN(CC(=O)NCCN(CC(=O)NCCN(CC(=O)NCCN(CC(=O)NCCN(CC(=O)N[C@@H](CCCNC(=N)N)C(=O)O)C(=O)Cn1cnc2c(N)ncnc21)C(=O)Cn1cc(C)c(=O)[nH]c1=O)C(=O)Cn1cnc2c(N)ncnc21)C(=O)Cn1cnc2c(=O)[nH]c(N)nc21)C(=O)Cn1cc(C)c(=O)[nH]c1=O)C(=O)Cn1cc(C)c(=O)[nH]c1=O)C(=O)Cn1cc(C)c(=O)[nH]c1=O)C(=O)Cn1cnc2c(=O)[nH]c(N)nc21)C(=O)Cn1ccc(N)nc1=O)C(=O)Cn1cnc2c(=O)[nH]c(N)nc21)C(=O)Cn1cnc2c(=O)[nH]c(N)nc21)C(=O)Cn1cc(C)c(=O)[nH]c1=O
Activity (Nucleic Acid [24]): 8%
Activity (Nucleic Acid [25]): 10%
Activity (Nucleic Acid [26]): 90%
inhibition (Nucleic Acid [27]): 10%

Other lines, results leading:

Activity (Nucleic Acid [12]): 15%
Activity (Nucleic Acid [13]): 41%
Activity (Nucleic Acid [14]): 59%
inhibition (Nucleic Acid [15]): 41%
Compound: C=Cc1nc(N)nc2c1ncn2CC(=O)N(CCN)CC(=O)NCCN(CC(=O)NCCN(CC(=O)NCCN(CC(=O)NCCN(CC(=O)NCCN(CC(=O)NCCN(CC(=O)NCCN(CC(=O)NCCN(CC(=O)NCCN(CC(=O)NCCN(CC(=O)NCCN(CC(=O)NCCN(CC(=O)N[C@@H](CCCNC(=N)N)C(=O)O)C(=O)Cn1ccc(N)nc1=O)C(=O)Cn1ccc(N)nc1=O)C(=O)Cn1cc(C)c(=O)[nH]c1=O)C(=O)Cn1ccc(N)nc1=O)C(=O)Cn1cnc2c(N)ncnc21)C(=O)Cn1ccc(N)nc1=O)C(=O)Cn1cnc2c(N)ncnc21)C(=O)Cn1ccc(N)nc1=O)C(=O)Cn1cc(C)c(=O)[nH]c1=O)C(=O)Cn1cnc2c(=O)[nH]c(N)nc21)C(=O)Cn1cc(C)c(=O)[nH]c1=O)C(=O)Cn1cc(C)c(=O)[nH]c1=O

Activity (Nucleic Acid [28]): 72%
Activity (Nucleic Acid [29]): 85%
Activity (Nucleic Acid [30]): 24%
inhibition (Nucleic Acid [31]): 76%
Compound: C=Cc1nc(N)nc2c1ncn2CC(=O)N(CCN)CC(=O)NCCN(CC(=O)NCCN(CC(=O)NCCN(CC(=O)NCCN(CC(=O)NCCN(CC(=O)NCCN(CC(=O)NCCN(CC(=O)NCCN(CC(=O)NCCN(CC(=O)NCCN(CC(=O)NCCN(CC(=O)NCCN(CC(=O)N[C@@H](CCCNC(=N)N)C(=O)O)C(=O)Cn1ccc(N)nc1=O)C(=O)Cn1cnc2c(N)ncnc21)C(=O)Cn1ccc(N)nc1=O)C(=O)Cn1cnc2c(N)ncnc21)C(=O)Cn1cnc2c(=O)[nH]c(N)nc21)C(=O)Cn1cnc2c(N)ncnc21)C(=O)Cn1cc(C)c(=O)[nH]c1=O)C(=O)Cn1cc(C)c(=O)[nH]c1=O)C(=O)Cn1cc(C)c(=O)[nH]c1=O)C(=O)Cn1cnc2c(=O)[nH]c(N)nc21)C(=O)Cn1cnc2c(N)ncnc21)C(=O)Cn1cc(C)c(=O)[nH]c1=O
